According to ChEMBL document CHEMBL1150587, “Evaluation of the potential cancer chemotherapeutic efficacy of natural product isolates employing in vivo hollow fiber tests” (J Nat Prod, 2002):
Activity calls are given as the source filed them. The rule behind the calls is not given here.

How the values were obtained:
[1] = system: Col2; test: Cytotoxicity against human Col2 cells after 72 hrs by SRB assay; format: functional, cell-based; settings: Col2, 72 h
[2] = Cytotoxicity against human BC1 cells after 72 hrs by SRB assay; settings: BC1, 72 h
[3] = Cytotoxicity against human KBV1 cells after 72 hrs by SRB assay; format: functional, cell-based; settings: KB-V1, 72 h
[4] = system: Mus musculus; test: Toxicity in human Lu1 cells implanted NCr nu/nu mouse at 516 umol/kg, ip administered from day 3 to 6 after implantation measured on day 7 by hollow-fiber test; format: organism-based; settings: in vivo
[5] = system: Mus musculus; test: Toxicity in NCr nu/nu mouse subcutaneously implanted with human Lu1 cells assessed as body weight change at 15.5 to 124 umol/kg, ip administered from day 3 to 6 after implantation measured on day 7; format: organism-based; settings: in vivo
[6] = system: SK-MEL-2; test: Cytotoxicity against human SK-MEL-2 cells after 72 hrs by SRB assay; format: functional, cell-based; settings: SK-MEL-2, 72 h
[7] = system: MCF7; test: Cytotoxicity against human MCF7 cells after 72 hrs by SRB assay; settings: MCF7, 72 h
[8] = system: KB; test: Cytotoxicity against human KB cells after 72 hrs by SRB assay; format: functional, cell-based
[9] = system: SW626; test: Cytotoxicity against human SW626 cells after 72 hrs by SRB assay; format: functional, cell-based; settings: SW626, 72 h
[10] = system: Mus musculus; test: Toxicity in human Lu1 cells implanted NCr nu/nu mouse assessed as body weight loss at 252 umol/kg, ip administered from day 3 to 6 after implantation measured on day 7 by hollow-fiber test; format: organism-based; settings: in vivo
[11] = system: Lu1; test: Growth inhibition of human Lu1 cells implanted subcutaneously to NCr nu/nu mouse at15.5 to 124 umol/kg, ip administered from day 3 to 6 after implantation measured on day 7 by MTT-based hollow-fiber test; format: functional
[12] = system: LNCaP; test: Cytotoxicity against human LNCAP cells after 72 hrs by SRB assay; format: functional, cell-based
[13] = system: Lu1; test: Growth inhibition of human Lu1 cells implanted intraperitoneally to NCr nu/nu mouse at15.5 to 124 umol/kg, ip administered from day 3 to 6 after implantation measured on day 7 by MTT-based hollow-fiber test; format: functional
[14] = system: Lu1; test: Cytotoxicity against human Lu1 cells after 72 hrs by SRB assay; format: functional, cell-based; settings: Lu1, 72 h
[15] = system: P388; test: Cytotoxicity against mouse P388 cells after 72 hrs by SRB assay; format: functional, cell-based; settings: P388, 72 h
[16] = system: Mus musculus; test: Toxicity in NCr nu/nu mouse subcutaneously implanted with human KB cells assessed as change in body weight at 145.3 umol/kg, ip administered on day 10, 13, 16, 20 of implantation; format: organism-based; settings: in vivo
[17] = system: MCF7; test: Growth inhibition of human MCF7 cells implanted intraperitoneally to NCr nu/nu mouse at 72.6 to 290.7 umol/kg, ip administered from day 3 to 6 after implantation measured on day 7 by MTT-based hollow-fiber test; format: functional
[18] = system: P388; test: Growth inhibition of mouse P388 cells implanted subcutaneously to NCr nu/nu mouse at 72.6 to 290.7 umol/kg, ip administered from day 3 to 6 after implantation measured on day 7 by MTT-based hollow-fiber test; format: functional
[19] = system: KB; test: Growth inhibition of ip dosed subcutaneously implanted human KB cells to NCr nu/nu mouse administered from day 3 to 6 after implantation measured on day 7 by MTT-based hollow-fiber test; format: functional, organism-based
[20] = system: Mus musculus; test: Toxicity in tumor cell implanted NCr nu/nu mouse assessed as body weight change at 72.6 umol/kg, ip administered from day 3 to 6 after implantation measured on day 7; format: organism-based; settings: in vivo
[21] = system: SK-MEL-2; test: Growth inhibition of human SK-MEL-2 cells implanted subcutaneously to NCr nu/nu mouse at 72.6 to 290.7 umol/kg, ip administered from day 3 to 6 after implantation measured on day 7 by MTT-based hollow-fiber test; format: functional
[22] = system: SW626; test: Growth inhibition of human SW626 cells implanted subcutaneously to NCr nu/nu mouse at 72.6 to 290.7 umol/kg, ip administered from day 3 to 6 after implantation measured on day 7 by MTT-based hollow-fiber test; format: functional
[23] = system: Mus musculus; test: Toxicity in NCr nu/nu mouse subcutaneously implanted with human KB cells assessed as change in body weight at 290.7 umol/kg, ip administered on day 10, 13, 16, 20 of implantation; format: organism-based; settings: in vivo
[24] = system: SK-MEL-2; test: Growth inhibition of ip dosed intraperitoneally implanted human SK-MEL-2 cells to NCr nu/nu mouse administered from day 3 to 6 after implantation measured on day 7 by MTT-based hollow-fiber test; format: functional, organism-based
[25] = system: Mus musculus; test: Toxicity in tumor cell implanted NCr nu/nu mouse assessed as body weight change at 290.7 umol/kg, ip administered from day 3 to 6 after implantation measured on day 7; format: organism-based; settings: in vivo
[26] = system: Mus musculus; test: Toxicity in NCr nu/nu mouse subcutaneously implanted with human KB cells assessed as mortality at 72.6 umol/kg, ip administered on day 10, 13, 16, 20 of implantation; format: organism-based; settings: in vivo
[27] = system: LNCaP; test: Growth inhibition of human LNCAP cells implanted intraperitoneally to NCr nu/nu mouse at 72.6 to 290.7 umol/kg, ip administered from day 3 to 6 after implantation measured on day 7 by MTT-based hollow-fiber test; format: functional
[28] = system: Mus musculus; test: Toxicity in NCr nu/nu mouse subcutaneously implanted with human KB cells assessed as mortality at 290.7 umol/kg, ip administered on day 10, 13, 16, 20 of implantation; format: organism-based; settings: in vivo
[29] = system: MCF7; test: Growth inhibition of human MCF7 cells implanted subcutaneously to NCr nu/nu mouse at 72.6 to 290.7 umol/kg, ip administered from day 3 to 6 after implantation measured on day 7 by MTT-based hollow-fiber test; format: functional
[30] = system: Mus musculus; test: Toxicity in NCr nu/nu mouse subcutaneously implanted with human KB cells assessed as change in body weight at 72.6 umol/kg, ip administered on day 10, 13, 16, 20 of implantation; format: organism-based; settings: in vivo
[31] = system: KB; test: Growth inhibition of human KB cells implanted intraperitoneally to NCr nu/nu mouse at 72.6 to 290.7 umol/kg, ip administered from day 3 to 6 after implantation measured on day 7 by MTT-based hollow-fiber test; format: functional
[32] = system: SK-MEL-2; test: Growth inhibition of ip dosed subcutaneously implanted human SK-MEL-2 cells to NCr nu/nu mouse administered from day 3 to 6 after implantation measured on day 7 by MTT-based hollow-fiber test; format: functional, organism-based
[33] = system: Lu1; test: Growth inhibition of human Lu1 cells implanted intraperitoneally to NCr nu/nu mouse at 72.6 to 290.7 umol/kg, ip administered from day 3 to 6 after implantation measured on day 7 by MTT-based hollow-fiber test; format: functional
[34] = system: LNCaP; test: Growth inhibition of human LNCAP cells implanted subcutaneously to NCr nu/nu mouse at 72.6 to 290.7 umol/kg, ip administered from day 3 to 6 after implantation measured on day 7 by MTT-based hollow-fiber test; format: functional
[35] = system: Lu1; test: Growth inhibition of human Lu1 cells implanted subcutaneously to NCr nu/nu mouse at 72.6 to 290.7 umol/kg, ip administered from day 3 to 6 after implantation measured on day 7 by MTT-based hollow-fiber test; format: functional
[36] = system: KB; test: Growth inhibition of ip dosed intraperitoneally implanted human KB cells to NCr nu/nu mouse administered from day 3 to 6 after implantation measured on day 7 by MTT-based hollow-fiber test; format: functional, organism-based
[37] = system: Mus musculus; test: Toxicity in NCr nu/nu mouse subcutaneously implanted with human KB cells assessed as mortality at 145.3 umol/kg, ip administered on day 10, 13, 16, 20 of implantation; format: organism-based; settings: in vivo
[38] = system: KB; test: Growth inhibition of human KB cells implanted subcutaneously to NCr nu/nu mouse at 72.6 to 290.7 umol/kg, ip administered from day 3 to 6 after implantation measured on day 7 by MTT-based hollow-fiber test; format: functional
[39] = system: KB; test: Growth inhibition of human KB cells implanted subcutaneously to NCr nu/nu mouse assessed as tumor size at 72.6 to 290.7 umol/kg, ip administered on day 10, 13, 16, 20 of implantation; format: functional, organism-based
[40] = system: P388; test: Growth inhibition of mouse P388 cells implanted intraperitoneally to NCr nu/nu mouse at 72.6 to 290.7 umol/kg, ip administered from day 3 to 6 after implantation measured on day 7 by MTT-based hollow-fiber test; format: functional
[41] = system: Mus musculus; test: Toxicity in tumor cell implanted NCr nu/nu mouse assessed as body weight change at 145.3 umol/kg, ip administered from day 3 to 6 after implantation measured on day 7; format: organism-based; settings: in vivo
[42] = system: SW626; test: Growth inhibition of human SW626 cells implanted intraperitoneally to NCr nu/nu mouse at 72.6 to 290.7 umol/kg, ip administered from day 3 to 6 after implantation measured on day 7 by MTT-based hollow-fiber test; format: functional
[43] = system: SK-MEL-2; test: Growth inhibition of human SK-MEL-2 cells implanted intraperitoneally to NCr nu/nu mouse at 72.6 to 290.7 umol/kg, ip administered from day 3 to 6 after implantation measured on day 7 by MTT-based hollow-fiber test; format: functional
[44] = system: KB; test: Growth inhibition of human KB cells implanted subcutaneously to NCr nu/nu mouse at 553.1 umol/kg, ip administered from day 3 to 6 after implantation measured on day 7 by MTT-based hollow-fiber test; format: functional
[45] = system: KB; test: Growth inhibition of human KB cells implanted intraperitoneally to NCr nu/nu mouse at 553.1 umol/kg, ip administered from day 3 to 6 after implantation measured on day 7 by MTT-based hollow-fiber test; format: functional
[46] = system: P388; test: Cytotoxicity against mouse P388 cells; format: functional, cell-based
[47] = Inhibition of protein farnesyltransferase
[48] = system: Mus musculus; test: Toxicity in NCr nu/nu mouse subcutaneously implanted with human KB cells assessed as body weight change at 553.1 umol/kg, ip administered from day 3 to 6 after implantation measured on day 7; format: organism-based; settings: in vivo

CC(O)c1cc2c(o1)C(=O)c1ccccc1C2=O (stereo not drawn)
IC50 [1]: 7.4 µM
IC50 [2]: 13.2 µM
IC50 [3]: 4.9 µM
Activity [4]: Toxic
Activity [5]: -0.4 g
IC50 [6]: 1.2 µM
IC50 [7]: 2.5 µM
IC50 [8]: 2.1 µM
IC50 [9]: 1.2 µM
Activity [10]: Toxic
inhibition (INH) [11]: 0%
IC50 [12]: 14.5 µM
inhibition (INH) [13]: 0%
IC50 [14]: 0.8 µM
IC50 [15]: 0.4 µM

C=C1C(=O)[C@@]23CC[C@@H]4[C@@]5(C)CCC[C@@]4(OC5=O)[C@@]2(C)CC[C@]1(OC)C3
Activity [16]: 7.6%
inhibition (INH) [17]: 34.4%
inhibition (INH) [18]: 0%
IC50 [1]: 3.8 µM
IC50 [2]: 3.5 µM
IC50 [3]: 5.2 µM
Activity [19]: Dose-dependent effect
Activity [20]: 0.74 g
IC50 [6]: 1.2 µM
inhibition (INH) [21]: 11.1%
IC50 [7]: 0.9 µM
inhibition (INH) [22]: 16.3%
Activity [23]: 6.6%
Activity [24]: Dose-dependent effect
Activity [25]: 0.85 g
Activity [26]: Non-toxic
inhibition (INH) [27]: 50.6%
Activity [28]: Non-toxic
inhibition (INH) [29]: 0%
Activity [30]: 7.9%
inhibition (INH) [31]: 21.6%
IC50 [8]: 6.4 µM
IC50 [9]: 0.6 µM
Activity [32]: Dose-dependent effect
inhibition (INH) [33]: 0%
inhibition (INH) [34]: 0%
inhibition (INH) [35]: 0%
Activity [36]: Dose-dependent effect
Activity [37]: Non-toxic
inhibition (INH) [38]: 5.7%
Activity [39]: Active
inhibition (INH) [40]: 0%
IC50 [12]: 1.2 µM
Activity [41]: 0.03 g
IC50 [14]: 2 µM
inhibition (INH) [42]: 0%
IC50 [15]: 0.3 µM
inhibition (INH) [43]: 15.5%

C=C1C(=O)O[C@@H]2C[C@]3(C)CC[C@]4(C)[C@H](CC[C@@H]5[C@@]6(C)CCC(=O)C(C)(C)[C@@H]6CC[C@]54C)[C@H]3[C@H]12 [OCHRACEOLIDE A]
IC50 [1]: 19.2 µM
IC50 [2]: 32.3 µM
IC50 [3]: > 44.2 µM
inhibition in vivo at 553.1 µmol/kg [44]: 0%
IC50 [6]: 14.8 µM
IC50 [7]: 16.6 µM
IC50 [8]: 20.4 µM
IC50 [9]: 35.4 µM
inhibition in vivo at 553.1 µmol/kg [45]: 0%
IC50 [46]: 0.58 µM
IC50 [12]: 13.1 µM
IC50 [14]: 24.3 µM
IC50 [15]: 3.5 µM
IC50 [47]: 2.2 µM
Activity [48]: 0.5 g
